Measured values taken from BindingDB's records for doi:10.1038/42506 (The University of Tokyo, 1997).

Target: T1, Leukotriene B4 receptor 2 (Homo sapiens, UniProt Q9NPC1)
T1 sequence (Q9NPC1 whole entry): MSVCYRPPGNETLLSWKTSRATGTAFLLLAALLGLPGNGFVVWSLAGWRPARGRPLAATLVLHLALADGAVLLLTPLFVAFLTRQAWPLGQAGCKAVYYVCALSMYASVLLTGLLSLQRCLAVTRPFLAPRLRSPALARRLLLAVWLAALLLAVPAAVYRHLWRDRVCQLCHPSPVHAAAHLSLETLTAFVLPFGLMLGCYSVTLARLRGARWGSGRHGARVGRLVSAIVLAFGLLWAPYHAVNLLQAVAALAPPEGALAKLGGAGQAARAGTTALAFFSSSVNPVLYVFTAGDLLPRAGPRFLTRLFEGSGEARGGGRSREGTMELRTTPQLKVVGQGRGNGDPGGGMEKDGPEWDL

Structure (SMILES) | Ki [nM]
CCCCC/C=C\C[C@H](O)/C=C/c1cccc(C[C@H](O)CCCCO)n1 [(5R)-6-[6-[(1E,3S,5Z)-3-hydroxyundeca-1,5-dienyl]pyridin-2-yl]hexane-1,5-diol] | 120
CCCCCCC=CC(=O)C=CC=CC=CC(O)CCCC(=O)O (stereo not given) [CAS_5280876] | 7.6
O=C(O)CCCC(O)C=CC=CC=CC(O)CC=CCCCCCO (stereo not given) [NSC_1589] | 7.6
O=C(O)CCCCCC=CCC(O)C=CC=CC=CC(O)CCCC(=O)O (stereo not given) [NSC_128572] | 190
COc1ccc(/C=C/CCCCOc2cccc(OCCCCC(=O)O)c2CCC(=O)O)cc1 [ONO 4057] | 1200
